What was measured:
[1] = system: EAE animal model of chronic progressive multiple sclerosis; assay: Chronic progressive EAE induced by MOG35-55 and pertussis toxin in mice, neurological scoring to day 35; assay type: in vivo, C57BL/6 mice; conditions: for treated animals in which development of EAE disease was prevented / No. of Animals Showing No Disease Activity: through day 35
Excerpt: A chronic progressive model of EAE is an accepted animal model of human chronic progressive multiple sclerosis (MS). In this model, induction of chronic progressive EAE occurs following injections of myelin oligodendrocyte glycoprotein (MOG). Approximately 8 to 14 days after injection of MOG, animals develop chronic progressive paralysis similar to that observed in humans with chronic progressive MS.
Female C57BL/6 mice (8-10 weeks old) were used in this study (Taconic Farm, CA). Compounds of the present invention were formulated in 0.5% carboxymethyl cellulose (CMC) with 0.1% Polysorbate 80 to achieve a final concentration of either 1.2 mg/ml or 4.0 mg/ml. FTY-720 was also formulated in 0.5% carboxymethyl cellulose (CMC) with 0.1% Polysorbate 80 to achieve a final concentration of 2.0 mg/ml.
Induction of chronic progressive EAE by injection with myelin oligodendrocyte glycoprotein (MOG) was performed as follows. Mice were injected subcutaneously with 200 μg of myelin oligodendrocyte glycoprotein (MOG35-55) peptide emulsion in both sides of their pectoral regions (50 μl each side). At 8 hours and 48 hr after immunization with MOG, animals were injected intraperitoneally with 400 ng of pertussis toxin (PT) in 100 μl of saline. Control mice received both injections with an equivalent volume of saline without MOG or PT.
[…] FTY-720 (10 mg/kg) was used in this study as a positive control and was administered daily from day 0 to day 35.
Neurological scoring was performed daily from day 7 to day 35 following MOG injection. Grading of disease severity (i.e., disease score) was based on the following observations performed by two different observers: 0=no abnormality; 1=distal weakness of the tail (limp tail); 2=limp tail and weakness of hind legs (mild paraparesis); 3=limp tail and complete paralysis of hind legs or paralysis in one of one front leg and one hind leg (moderate paraparesis); 4=limp tail, complete hind leg and partial front leg paralysis (moderate quadraparesis); 5=complete hind and front leg paralysis (moribund). Analysis of variance (ANOVA) was performed on data from the measured (neurological score) parameters. p value≦0.05 were considered significant.

[2] = system: EAE animal model of multiple sclerosis; assay: EAE induced by MBP injection in Lewis rats, prophylactic versus treatment dosing (second series); assay type: in vivo
Protocol: In another series of experiments, the effectiveness of compounds and methods of the present invention on treating established multiple sclerosis in an EAE model was examined as follows. EAE was induced in female Lewis rats (200-220 g) as described above. Compound of the invention (30 mg/kg) or vehicle control was administered p.o. daily from day 3 to day 21 following MBP injection (prophylactic group) or from the day first symptoms appeared to day 21 (treatment group). Dexamethasone (1 mg/kg) was administered subcutaneously at 1 mg/kg from day 8 to day 12 following MBP injection.
Neurological scoring was performed daily from day 7 to day 21 following […]. Grading of disease severity (i.e., disease score) was based on the following observations performed by two different observers: 0=no abnormality; 1=distal weakness of the tail; 2=complete weakness of the tail; 3=mild weakness in one or two hindlimbs; 4=moderate paraparesia of one or two hindlimbs; 5=total paraplegia. Analysis of variance (ANOVA) was performed on data from the measured (clinical score) or the calculated (severity score) parameters. Fisher's Protected Least Significant Difference was used for pairwise comparisons. p value≦0.05 were considered significant.
Cumulative EAE disease score, used as a measure of overall disease severity, was determined by adding all disease/neurological scores for each animal over the time course of the experiment.

N#Cc1nc(C(=O)NCC(=O)O)c(O)c2c(Oc3ccccc3)cccc12 [Compound A, [(1-Cyano-4-hydroxy-5-phenoxy-isoquinoline-3-carbonyl)-amino]-acetic acid]
treated animals in which development of EAE disease was prevented ([1]; 10 mg/kg as printed): 40%
disease severity compared to vehicle-treated control EAE animals ([1]; 10 mg/kg or 30 mg/kg as printed, p.o. three times a week, day 0-35, FIG. 5): reduction in disease severity at all timepoints
treated animals in which development of EAE disease was prevented ([1]; 30 mg/kg as printed, p<0.05): 43%
No. of Animals Showing No Disease Activity ([1]; first EAE/Cmpd A row, dose not printed in Table 4 (Table 3: 6 mg/kg/d, 3 times a week)): 6/15
No. of Animals Showing No Disease Activity ([1]; second EAE/Cmpd A row, dose not printed in Table 4 (Table 3: 20 mg/kg/d, 3 times a week)): 6/14
cumulative disease score (AUC) ([2]; 30 mg/kg p.o., both prophylactic group and treatment group, FIGS. 4A and 4B): reduced
reduction in disease severity compared to vehicle-treated control EAE animals ([2]; prophylactic group: 30 mg/kg p.o. daily, day 3 to day 21): 31%
reduction in disease severity compared to vehicle-treated control EAE animals ([2]; treatment group: 30 mg/kg p.o. daily, first symptom to day 21, p<0.05): 19%

From patent US20110263642A1, “METHODS FOR TREATMENT OF MULTIPLE SCLEROSIS” (FibroGen, Inc., priority 2008, published 2011)
